Laboratory results: the NIST ThermoML archive (doi:10.1016/j.fluid.2005.05.029)
Numbers after ± are expanded uncertainties.

Experiment: excess molar enthalpy (molar enthalpy of mixing); xn = mol fraction of the nth substance listed
Conditions: Liquid, Flow calorimetry

CCOC(=O)OCC [diethyl carbonate] + O=C=O
excess molar enthalpy [kcal/mol]
Conditions | 298.15 K | 303.15 K | 308.15 K
5000 kPa, x2 = 0.1103 | – | -0.299 ± 0.00645 | -0.335 ± 0.00717
5000 kPa, x2 = 0.2074 | -0.57 ± 0.0122 | -0.577 ± 0.0122 | -0.627 ± 0.0134
5000 kPa, x2 = 0.2936 | -0.816 ± 0.0174 | -0.815 ± 0.0174 | -0.833 ± 0.0177
5000 kPa, x2 = 0.3706 | -1.03 ± 0.0217 | -1.06 ± 0.0225 | -1.06 ± 0.0225
5000 kPa, x2 = 0.4398 | -1.22 ± 0.0263 | -1.24 ± 0.0263 | -1.24 ± 0.0263
5000 kPa, x2 = 0.5023 | -1.4 ± 0.0287 | -1.4 ± 0.0287 | -1.41 ± 0.0287
5000 kPa, x2 = 0.5591 | -1.53 ± 0.0335 | -1.55 ± 0.0335 | –
5000 kPa, x2 = 0.6109 | -1.65 ± 0.0359 | -1.67 ± 0.0359 | -1.68 ± 0.0359
5000 kPa, x2 = 0.6583 | -1.78 ± 0.0382 | -1.79 ± 0.0382 | -1.8 ± 0.0382
5000 kPa, x2 = 0.7019 | -1.89 ± 0.0406 | -1.89 ± 0.0406 | -1.9 ± 0.0406
5000 kPa, x2 = 0.7184 | – | – | -1.94 ± 0.0406
5000 kPa, x2 = 0.7264 | – | – | -1.95 ± 0.0406
5000 kPa, x2 = 0.7343 | – | – | -1.85 ± 0.0406
5000 kPa, x2 = 0.7421 | -1.97 ± 0.0406 | -1.98 ± 0.043 | -1.81 ± 0.0382
5000 kPa, x2 = 0.7794 | -2.04 ± 0.043 | -2.03 ± 0.043 | -1.54 ± 0.0335
5000 kPa, x2 = 0.7935 | – | -2.05 ± 0.043 | –
5000 kPa, x2 = 0.8004 | – | -1.98 ± 0.043 | –
5000 kPa, x2 = 0.8139 | -2.1 ± 0.0454 | -1.86 ± 0.0406 | –
5000 kPa, x2 = 0.846 | -2.14 ± 0.0454 | -1.51 ± 0.0335 | -1.07 ± 0.0227
5000 kPa, x2 = 0.8522 | -2.07 ± 0.043 | – | –
5000 kPa, x2 = 0.876 | -1.76 ± 0.0382 | -1.21 ± 0.0263 | –
5000 kPa, x2 = 0.904 | -1.36 ± 0.0287 | -0.922 ± 0.0196 | -0.65 ± 0.0139
5000 kPa, x2 = 0.9303 | -0.998 ± 0.0213 | -0.722 ± 0.0153 | –
5000 kPa, x2 = 0.9549 | -0.638 ± 0.0136 | -0.439 ± 0.00932 | -0.297 ± 0.00645
5000 kPa, x2 = 0.9781 | -0.308 ± 0.00669 | -0.208 ± 0.00454 | –
5000 kPa, x2 = 0.9957 | – | – | -0.00454 ± 0.00382
5500 kPa, x2 = 0.111 | -0.3 ± 0.00645 | -0.304 ± 0.00645 | -0.305 ± 0.00645
5500 kPa, x2 = 0.2086 | -0.571 ± 0.0122 | -0.574 ± 0.0122 | -0.579 ± 0.0124
5500 kPa, x2 = 0.2951 | -0.804 ± 0.0172 | -0.802 ± 0.017 | –
5500 kPa, x2 = 0.3723 | -0.995 ± 0.0213 | -1 ± 0.0213 | -1.02 ± 0.0217
5500 kPa, x2 = 0.4416 | -1.16 ± 0.0239 | -1.17 ± 0.0239 | –
5500 kPa, x2 = 0.5041 | -1.32 ± 0.0287 | -1.32 ± 0.0287 | -1.37 ± 0.0287
5500 kPa, x2 = 0.5609 | -1.44 ± 0.0311 | -1.46 ± 0.0311 | –
5500 kPa, x2 = 0.6126 | – | -1.6 ± 0.0335 | -1.64 ± 0.0359
5500 kPa, x2 = 0.66 | -1.68 ± 0.0359 | -1.71 ± 0.0359 | -1.75 ± 0.0359
5500 kPa, x2 = 0.7035 | -1.75 ± 0.0382 | -1.79 ± 0.0382 | -1.84 ± 0.0382
5500 kPa, x2 = 0.7199 | – | – | -1.87 ± 0.0406
5500 kPa, x2 = 0.7436 | -1.84 ± 0.0382 | -1.86 ± 0.0406 | -1.92 ± 0.0406
5500 kPa, x2 = 0.7587 | – | – | -1.95 ± 0.0406
5500 kPa, x2 = 0.7661 | – | – | -1.95 ± 0.0406
5500 kPa, x2 = 0.7734 | – | – | -1.97 ± 0.0406
5500 kPa, x2 = 0.7806 | -1.91 ± 0.0406 | -1.94 ± 0.0406 | -1.95 ± 0.0406
5500 kPa, x2 = 0.7947 | – | – | -1.82 ± 0.0382
5500 kPa, x2 = 0.815 | -1.96 ± 0.0406 | -2.01 ± 0.043 | -1.64 ± 0.0359
5500 kPa, x2 = 0.8281 | – | -2.03 ± 0.043 | –
5500 kPa, x2 = 0.8345 | – | -2.03 ± 0.043 | –
5500 kPa, x2 = 0.8408 | – | -2.03 ± 0.043 | –
5500 kPa, x2 = 0.847 | -2.01 ± 0.043 | -1.93 ± 0.0406 | -1.36 ± 0.0287
5500 kPa, x2 = 0.8768 | -2.04 ± 0.043 | -1.52 ± 0.0335 | –
5500 kPa, x2 = 0.9047 | -2.07 ± 0.043 | -1.21 ± 0.0263 | -0.841 ± 0.0179
5500 kPa, x2 = 0.91 | -2.07 ± 0.043 | – | –
5500 kPa, x2 = 0.9153 | -2.04 ± 0.043 | – | –
5500 kPa, x2 = 0.9205 | -1.95 ± 0.0406 | – | –
5500 kPa, x2 = 0.9308 | -1.69 ± 0.0359 | -0.875 ± 0.0186 | –
5500 kPa, x2 = 0.9553 | -1.08 ± 0.0229 | -0.564 ± 0.012 | -0.396 ± 0.00837
5500 kPa, x2 = 0.9783 | -0.498 ± 0.0105 | -0.265 ± 0.00574 | –
6000 kPa, x2 = 0.2097 | – | – | -0.562 ± 0.012
6000 kPa, x2 = 0.2965 | – | – | -0.778 ± 0.0165
6000 kPa, x2 = 0.3739 | – | – | -0.994 ± 0.021
6000 kPa, x2 = 0.4433 | – | – | -1.17 ± 0.0239
6000 kPa, x2 = 0.5058 | – | – | -1.32 ± 0.0287
6000 kPa, x2 = 0.5626 | – | – | -1.45 ± 0.0311
6000 kPa, x2 = 0.6142 | – | – | -1.57 ± 0.0335
6000 kPa, x2 = 0.6615 | – | – | -1.66 ± 0.0359
6000 kPa, x2 = 0.7049 | – | – | -1.76 ± 0.0382
6000 kPa, x2 = 0.7448 | – | – | -1.83 ± 0.0382
6000 kPa, x2 = 0.7818 | – | – | -1.9 ± 0.0406
6000 kPa, x2 = 0.7958 | – | – | -1.92 ± 0.0406
6000 kPa, x2 = 0.816 | – | – | -1.94 ± 0.0406
6000 kPa, x2 = 0.829 | – | – | -1.95 ± 0.0406
6000 kPa, x2 = 0.8354 | – | – | -1.91 ± 0.0406
6000 kPa, x2 = 0.8479 | – | – | -1.76 ± 0.0382
6000 kPa, x2 = 0.9052 | – | – | -1.09 ± 0.0232
6000 kPa, x2 = 0.9555 | – | – | -0.501 ± 0.0108
6500 kPa, x2 = 0.1123 | – | – | -0.281 ± 0.00598
6500 kPa, x2 = 0.2108 | – | – | -0.536 ± 0.0115
6500 kPa, x2 = 0.2978 | – | – | -0.751 ± 0.016
6500 kPa, x2 = 0.3753 | – | – | -0.972 ± 0.0208
6500 kPa, x2 = 0.4448 | – | – | -1.1 ± 0.0234
6500 kPa, x2 = 0.5074 | – | – | -1.25 ± 0.0263
6500 kPa, x2 = 0.5641 | – | – | -1.37 ± 0.0287
6500 kPa, x2 = 0.6157 | – | – | -1.47 ± 0.0311
6500 kPa, x2 = 0.6629 | – | – | -1.58 ± 0.0335
6500 kPa, x2 = 0.7062 | – | – | -1.67 ± 0.0359
6500 kPa, x2 = 0.746 | – | – | -1.73 ± 0.0359
6500 kPa, x2 = 0.7828 | – | – | -1.76 ± 0.0382
6500 kPa, x2 = 0.817 | – | – | -1.8 ± 0.0382
6500 kPa, x2 = 0.8487 | – | – | -1.83 ± 0.0382
6500 kPa, x2 = 0.8782 | – | – | -1.82 ± 0.0382
6500 kPa, x2 = 0.895 | – | – | -1.7 ± 0.0359
6500 kPa, x2 = 0.9058 | – | – | -1.56 ± 0.0335
6500 kPa, x2 = 0.9215 | – | – | -1.27 ± 0.0263
6500 kPa, x2 = 0.9316 | – | – | -1.13 ± 0.0239
6500 kPa, x2 = 0.9415 | – | – | -0.986 ± 0.021
6500 kPa, x2 = 0.9558 | – | – | -0.69 ± 0.0148
6500 kPa, x2 = 0.9786 | – | – | -0.329 ± 0.00717
6500 kPa, x2 = 0.9916 | – | – | -0.111 ± 0.00406
